Experimental data published in US10927418B2, “Assays and methods for selecting a treatment regimen for a subject with leukemia” (CELATOR PHARMACEUTICALS, INC., priority 2015, dated 2021).

System: ME-1 and MOLM-14 cells
Assay: CPX-351 uptake after quizartinib pretreatment
Assay type: cell-based
Experimental: Uptake of CPX-351 was measured by daunorubicin fluorescence as determined by flow cytometry normalized to untreated control. The x-axis in the graphs depicts the uptake of CPX-351 in standard units of fluorescence and the y-axis represents the normalized cell counts. […] It is clear from FIGS. 9A and 9B that as the pretreatment time is extended, the ability of some of the cells to take up CPX-351 is diminished. The results in FIGS. 9C and 9D are composites of the various timepoints up to 24 hours.

`CC(C)(C)c1cc(NC(=O)Nc2ccc(-c3cn4c(n3)sc3cc(OCCN5CCOCC5)ccc34)cc2)no1` [quizartinib] was tested, and the “ability of cells to take up CPX-351 as quizartinib pretreatment time is extended” value (10 nM quizartinib for 0, 2, 8, 16 and 24 hours, then CPX-351 for 2 hours) was “diminished” and the “total population of cells exhibiting decreased daunorubicin fluorescence” value (pretreatment with quizartinib for 16 hours) was “approximately 50%”.
